According to PubChem BioAssay (NCI):
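96-well plates; 48 h exposure; 5 concentrations. Endpoints by linear interpolation between flanking doses. Not reached: highest tested concentration assigned. Definition used: TGI = concentration required for complete inhibition of growth.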

Legend:
Test in all cases: growth of human tumour cells (NCI), 48 h
SK-MEL-28 melanoma = test system: SK-MEL-28 melanoma
UO-31 renal = test system: UO-31 renal
RPMI-8226 leukemia = test system: RPMI-8226 leukemia
SF-539 CNS = test system: SF-539 CNS
UACC-257 melanoma = test system: UACC-257 melanoma
SK-MEL-2 melanoma = test system: SK-MEL-2 melanoma
NCI-H522 lung = test system: NCI-H522 lung
HT29 colon = test system: HT29 colon
IGROV1 ovarian = test system: IGROV1 ovarian
K-562 leukemia = test system: K-562 leukemia
U251 CNS = test system: U251 CNS
OVCAR-8 ovarian = test system: OVCAR-8 ovarian
A498 renal = test system: A498 renal
A549 NSCLC = test system: A549 NSCLC
SF-295 CNS = test system: SF-295 CNS
OVCAR-3 ovarian = test system: OVCAR-3 ovarian
KM12 colon = test system: KM12 colon
SN12C renal = test system: SN12C renal
UACC-62 melanoma = test system: UACC-62 melanoma
M14 melanoma = test system: M14 melanoma

`CC(NC(=O)C(C)NC(=O)C(N)CCP(C)(=O)O)C(=O)O` (centres undefined) was tested, and the TGI (SK-MEL-28 melanoma) was > 100 µM, the TGI (UO-31 renal) was > 100 µM and the TGI (RPMI-8226 leukemia) was > 100 µM. For the same compound, the TGI (SF-539 CNS) was > 100 µM, the TGI (UACC-257 melanoma) was > 100 µM and the TGI (SK-MEL-2 melanoma) was > 100 µM. For the same compound, the TGI (NCI-H522 lung) was > 100 µM, the TGI (HT29 colon) was > 100 µM and the TGI (IGROV1 ovarian) was > 100 µM. The TGI (K-562 leukemia) was > 100 µM, the TGI (U251 CNS) was > 100 µM and the TGI (OVCAR-8 ovarian) was > 100 µM. For the same compound, the TGI (A498 renal) was > 100 µM, the TGI (A549 NSCLC) was > 100 µM and the TGI (SF-295 CNS) was > 100 µM. The TGI (OVCAR-3 ovarian) was > 100 µM, the TGI (KM12 colon) was > 100 µM and the TGI (SN12C renal) was > 100 µM. The TGI (UACC-62 melanoma) was > 100 µM.
With `Nc1nc(SCc2ccc([N+](=O)[O-])cc2)nc2c1ncn2C1OC(COP(=O)(O)O)C(O)C1O` (centres undefined) the TGI (SK-MEL-28 melanoma) was > 100 µM, the TGI (SF-539 CNS) was > 100 µM and the TGI (UACC-257 melanoma) was > 100 µM. For the same compound, the TGI (SK-MEL-2 melanoma) was > 100 µM, the TGI (NCI-H522 lung) was > 100 µM and the TGI (M14 melanoma) was > 100 µM. For the same compound, the TGI (HT29 colon) was > 100 µM, the TGI (IGROV1 ovarian) was > 100 µM and the TGI (K-562 leukemia) was > 100 µM. The TGI (U251 CNS) was > 100 µM, the TGI (OVCAR-8 ovarian) was > 100 µM and the TGI (A498 renal) was > 100 µM. For the same compound, the TGI (A549 NSCLC) was > 100 µM, the TGI (SF-295 CNS) was > 100 µM and the TGI (OVCAR-3 ovarian) was > 100 µM. The TGI (KM12 colon) was > 100 µM, the TGI (SN12C renal) was > 100 µM and the TGI (UACC-62 melanoma) was > 100 µM.
In the case of `CC(C)OP(=O)(OC(C)C)/C(I)=N/Nc1ccc([N+](=O)[O-])cc1`, the TGI (SK-MEL-28 melanoma) is reported as > 100 µM, the TGI (UO-31 renal) is reported as > 100 µM and the TGI (RPMI-8226 leukemia) is reported as > 100 µM. For the same compound, the TGI (SF-539 CNS) was > 100 µM, the TGI (UACC-257 melanoma) was > 100 µM and the TGI (SK-MEL-2 melanoma) was > 100 µM. The TGI (NCI-H522 lung) was > 100 µM, the TGI (M14 melanoma) was > 100 µM and the TGI (HT29 colon) was > 100 µM. The TGI (IGROV1 ovarian) was > 100 µM, the TGI (K-562 leukemia) was > 100 µM and the TGI (U251 CNS) was > 100 µM. For the same compound, the TGI (OVCAR-8 ovarian) was > 100 µM, the TGI (A498 renal) was > 100 µM and the TGI (A549 NSCLC) was > 100 µM. For the same compound, the TGI (SF-295 CNS) was > 100 µM, the TGI (OVCAR-3 ovarian) was > 100 µM and the TGI (KM12 colon) was > 100 µM. For the same compound, the TGI (SN12C renal) was > 100 µM and the TGI (UACC-62 melanoma) was > 100 µM.
With `Cc1ccc(N=N/C(=N\NC(=O)c2ccc(C)cc2)c2ccc(N(CCC#N)CCC#N)cc2C)cc1` the TGI (SK-MEL-28 melanoma) was 52.5 µM, the TGI (UO-31 renal) was > 100 µM and the TGI (RPMI-8226 leukemia) was > 100 µM. For the same compound, the TGI (SF-539 CNS) was 45.1 µM, the TGI (UACC-257 melanoma) was > 100 µM and the TGI (SK-MEL-2 melanoma) was 51.6 µM. The TGI (M14 melanoma) was 91.8 µM, the TGI (HT29 colon) was > 100 µM and the TGI (IGROV1 ovarian) was 60.6 µM. The TGI (K-562 leukemia) was > 100 µM, the TGI (U251 CNS) was > 100 µM and the TGI (OVCAR-8 ovarian) was > 100 µM. The TGI (A498 renal) was > 100 µM, the TGI (A549 NSCLC) was > 100 µM and the TGI (SF-295 CNS) was > 100 µM. For the same compound, the TGI (OVCAR-3 ovarian) was > 100 µM, the TGI (KM12 colon) was 30.3 µM and the TGI (UACC-62 melanoma) was 56.7 µM.
With `Cc1ccc(N2Cc3c(ccc4ccccc34)OP2(=O)Oc2ccc(Cl)c(C)c2)cc1` (centres undefined) the TGI (SK-MEL-28 melanoma) was > 100 µM, the TGI (UO-31 renal) was > 100 µM and the TGI (RPMI-8226 leukemia) was > 22.3 µM. The TGI (SF-539 CNS) was > 100 µM, the TGI (UACC-257 melanoma) was > 100 µM and the TGI (SK-MEL-2 melanoma) was > 100 µM. For the same compound, the TGI (NCI-H522 lung) was > 100 µM, the TGI (HT29 colon) was > 100 µM and the TGI (IGROV1 ovarian) was > 100 µM. For the same compound, the TGI (K-562 leukemia) was > 100 µM, the TGI (U251 CNS) was > 100 µM and the TGI (OVCAR-8 ovarian) was > 100 µM. The TGI (A498 renal) was > 100 µM, the TGI (A549 NSCLC) was > 100 µM and the TGI (SF-295 CNS) was > 100 µM. For the same compound, the TGI (OVCAR-3 ovarian) was > 31.6 µM, the TGI (KM12 colon) was > 100 µM and the TGI (SN12C renal) was > 100 µM. The TGI (UACC-62 melanoma) was > 100 µM.
`CC1=Nc2nc(Cl)cn2C(=O)C1(Cl)Cl` was tested, and the TGI (SK-MEL-28 melanoma) was > 10 µM, the TGI (UO-31 renal) was > 10 µM and the TGI (RPMI-8226 leukemia) was > 10 µM. For the same compound, the TGI (SF-539 CNS) was > 10 µM, the TGI (SK-MEL-2 melanoma) was > 10 µM and the TGI (NCI-H522 lung) was > 10 µM. For the same compound, the TGI (M14 melanoma) was > 10 µM, the TGI (HT29 colon) was > 10 µM and the TGI (IGROV1 ovarian) was > 10 µM. For the same compound, the TGI (K-562 leukemia) was > 10 µM, the TGI (U251 CNS) was > 10 µM and the TGI (OVCAR-8 ovarian) was > 10 µM. The TGI (A498 renal) was > 10 µM, the TGI (A549 NSCLC) was > 10 µM and the TGI (SF-295 CNS) was > 10 µM. The TGI (OVCAR-3 ovarian) was > 10 µM, the TGI (KM12 colon) was > 10 µM and the TGI (SN12C renal) was > 10 µM. For the same compound, the TGI (UACC-62 melanoma) was > 10 µM.
For `COc1ccc(-n2cnnc2-c2nsc3ccccc23)cc1`, the TGI (SK-MEL-28 melanoma) was > 100 µM, the TGI (UO-31 renal) was > 100 µM and the TGI (RPMI-8226 leukemia) was > 100 µM. The TGI (SF-539 CNS) was > 100 µM, the TGI (UACC-257 melanoma) was > 100 µM and the TGI (SK-MEL-2 melanoma) was > 100 µM. The TGI (M14 melanoma) was > 100 µM, the TGI (HT29 colon) was > 100 µM and the TGI (IGROV1 ovarian) was > 100 µM. For the same compound, the TGI (K-562 leukemia) was > 100 µM, the TGI (U251 CNS) was > 100 µM and the TGI (OVCAR-8 ovarian) was > 100 µM. For the same compound, the TGI (A549 NSCLC) was > 100 µM, the TGI (OVCAR-3 ovarian) was > 100 µM and the TGI (KM12 colon) was > 100 µM. The TGI (SN12C renal) was > 100 µM and the TGI (UACC-62 melanoma) was > 100 µM.
`C[Si](C)(OCCS(=O)(=O)O)C1(Cc2cccc3ccccc23)S(=O)(=O)OCCOS1(=O)=O` was tested, and the TGI (SK-MEL-28 melanoma) was 37 µM, the TGI (UO-31 renal) was 32.4 µM and the TGI (RPMI-8226 leukemia) was 57 µM. The TGI (SF-539 CNS) was 39.5 µM, the TGI (UACC-257 melanoma) was 80.1 µM and the TGI (SK-MEL-2 melanoma) was 46.3 µM. The TGI (NCI-H522 lung) was 30.5 µM, the TGI (M14 melanoma) was 46.1 µM and the TGI (IGROV1 ovarian) was 36.3 µM. For the same compound, the TGI (K-562 leukemia) was > 100 µM, the TGI (U251 CNS) was 63.7 µM and the TGI (OVCAR-8 ovarian) was 52.4 µM. The TGI (A498 renal) was 30.8 µM, the TGI (A549 NSCLC) was 65.2 µM and the TGI (SF-295 CNS) was 69.9 µM. For the same compound, the TGI (OVCAR-3 ovarian) was 25.9 µM, the TGI (KM12 colon) was 29.5 µM and the TGI (SN12C renal) was 41.3 µM. For the same compound, the TGI (UACC-62 melanoma) was 43 µM.
